Measurements from patent US9815796B2 (Merck Sharp & Dohme Corp., priority 2013, dated 2017).
Read-outs that look alike come from different tables or passages of the source.

Assays:
[1] = molecular target: Rhesus PDE2A3 (Macaca mulatta, UniProt B3VTJ2); test: PDE2 fluorescence polarization (IMAP FP) inhibition assay, rhesus enzyme; assay type: biochemical, rhesus macaque
Summary of the method: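 IMAP FP (mP from parallel and perpendicular fluorescence against substrate-only control) was read ≥1 h after adding binding reagent. The preceding 60 min room-temperature reaction contained FAM-cAMP (50 nM) and cGMP (1 uM) in pH 7.2 Tris buffer with MgCl2 and DTT. Enzyme was supernatant of sonicated AD293 cells expressing rhesus PDE2A3; compounds were 3-fold titrated, DMSO 1% final.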

[2] = molecular target: human PDE2A1 (Homo sapiens (Human), UniProt O00408); test: IMAP FP PDE selectivity panel, human PDE2A1; assay type: biochemical
human PDE2A1, sequence (O00408 other isoform, or with tags, fused parts or gaps): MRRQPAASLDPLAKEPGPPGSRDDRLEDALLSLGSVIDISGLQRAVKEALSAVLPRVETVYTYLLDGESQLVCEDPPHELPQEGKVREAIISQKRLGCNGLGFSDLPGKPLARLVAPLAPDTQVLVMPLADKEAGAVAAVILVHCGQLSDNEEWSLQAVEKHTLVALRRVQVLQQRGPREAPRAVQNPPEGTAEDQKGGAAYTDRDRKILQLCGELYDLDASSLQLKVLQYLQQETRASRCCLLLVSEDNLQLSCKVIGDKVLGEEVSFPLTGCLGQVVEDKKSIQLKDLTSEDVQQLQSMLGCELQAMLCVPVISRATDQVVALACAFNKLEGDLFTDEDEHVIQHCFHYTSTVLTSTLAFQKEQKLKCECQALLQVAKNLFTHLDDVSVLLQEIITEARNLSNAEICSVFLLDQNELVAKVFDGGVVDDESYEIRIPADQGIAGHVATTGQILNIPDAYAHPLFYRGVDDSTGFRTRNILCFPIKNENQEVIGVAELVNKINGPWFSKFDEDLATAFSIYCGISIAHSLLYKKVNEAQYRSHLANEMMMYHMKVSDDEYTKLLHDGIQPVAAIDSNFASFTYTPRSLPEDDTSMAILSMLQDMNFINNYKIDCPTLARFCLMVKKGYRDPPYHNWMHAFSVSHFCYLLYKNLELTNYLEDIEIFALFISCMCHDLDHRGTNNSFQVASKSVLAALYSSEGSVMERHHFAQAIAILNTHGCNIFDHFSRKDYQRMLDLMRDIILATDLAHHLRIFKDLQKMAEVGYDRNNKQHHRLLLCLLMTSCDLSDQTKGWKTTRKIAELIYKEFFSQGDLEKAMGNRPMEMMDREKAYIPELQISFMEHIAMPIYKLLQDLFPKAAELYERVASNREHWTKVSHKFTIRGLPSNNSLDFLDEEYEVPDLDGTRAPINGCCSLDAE
Summary of the method: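 IMAP FP format: substrate 50 nM FAM-cAMP plus 1000 nM cGMP, enzyme (insect-cell GST-tagged human PDE2A1) at ~20% conversion, 60 min reaction at room temperature. Apparent inhibition constants calculated from parallel/perpendicular fluorescence with KM 10,000 nM.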

[3] = Rhesus PDE2, Lab A, read-out: Rhesus PDE2 Ki (nM) - Lab A
[4] = Human PDE2, Lab A, read-out: Human PDE2 Ki (nM) - Lab A
[5] = Rhesus PDE2, Lab B, read-out: Rhesus PDE2 Ki (nM) - Lab B
[6] = Human PDE2, Lab B, read-out: Human PDE2 Ki (nM) - Lab B

Rhesus PDE2A3, sequence (B3VTJ2 1-941): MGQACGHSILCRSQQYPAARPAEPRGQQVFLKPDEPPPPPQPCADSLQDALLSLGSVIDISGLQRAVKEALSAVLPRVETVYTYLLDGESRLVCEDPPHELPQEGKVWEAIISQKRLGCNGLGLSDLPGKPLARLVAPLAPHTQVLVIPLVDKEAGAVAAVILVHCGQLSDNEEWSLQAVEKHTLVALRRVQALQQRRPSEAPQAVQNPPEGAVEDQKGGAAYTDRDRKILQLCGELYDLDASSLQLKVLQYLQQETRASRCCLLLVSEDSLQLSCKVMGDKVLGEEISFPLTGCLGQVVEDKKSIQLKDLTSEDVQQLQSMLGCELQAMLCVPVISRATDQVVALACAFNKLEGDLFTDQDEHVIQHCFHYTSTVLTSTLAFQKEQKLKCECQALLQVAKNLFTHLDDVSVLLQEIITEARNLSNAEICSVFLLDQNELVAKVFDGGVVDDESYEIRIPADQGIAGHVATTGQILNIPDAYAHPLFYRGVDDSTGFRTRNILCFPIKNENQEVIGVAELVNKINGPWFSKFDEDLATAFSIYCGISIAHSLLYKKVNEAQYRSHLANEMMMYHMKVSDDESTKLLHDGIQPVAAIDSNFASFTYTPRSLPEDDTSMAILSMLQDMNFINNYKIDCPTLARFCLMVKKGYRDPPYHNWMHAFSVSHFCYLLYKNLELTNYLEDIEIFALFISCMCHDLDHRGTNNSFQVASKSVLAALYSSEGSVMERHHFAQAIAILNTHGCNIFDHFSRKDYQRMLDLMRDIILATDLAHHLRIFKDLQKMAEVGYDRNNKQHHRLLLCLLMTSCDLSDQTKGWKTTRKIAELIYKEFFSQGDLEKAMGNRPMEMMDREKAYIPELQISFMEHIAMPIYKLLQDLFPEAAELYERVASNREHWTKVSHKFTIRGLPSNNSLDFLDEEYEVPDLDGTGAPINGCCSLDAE

Row | Ki [1, 3] [nM] | Ki [2, 4] [nM] | Ki [1, 5] [nM] | Ki [2, 6] [nM] | SMILES
1 | 46 | 98 | – | – | Cc1nc(C(=O)N[C@H](C)c2ccc(OC(F)(F)F)cc2F)cc(=O)[nH]1 [Example 21, N-{(1R)-1-[2-fluoro-4-(trifluoromethoxy)phenyl]ethyl}-2-methyl-6-oxo-1,6-dihydropyrimidine-4-carboxamide]
2 | 13 | 8.6 | 14 | 14 | Cc1nc(C(=O)N[C@H](C)c2ccc(OC(F)(F)F)c(F)c2)cc(=O)[nH]1 [Example 22, N-{(1R)-1-[3-fluoro-4-(trifluoromethoxy)phenyl]ethyl}-2-methyl-6-oxo-1,6-dihydropyrimidine-4-carboxamide]
3 | 1140 | 663 | – | – | Cc1nc(C(=O)NC(C)c2ccc(C(F)(F)F)cc2C)cc(=O)[nH]1 (centres unmarked) [Example 25, 2-methyl-N-{1-[2-methyl-4-(trifluoromethyl)phenyl]ethyl}-6-oxo-1,6-dihydropyrimidine-4-carboxamide]
4 | 231 | 104 | – | – | Cc1nc(C(=O)N[C@H](C)c2cc(F)c(C(F)(F)F)c(F)c2)cc(=O)[nH]1 [Example 26, N-{(1R)-[3,5-difluoro-4-(trifluoromethyl)phenyl]ethyl}-2-methyl-6-oxo-1,6-dihydropyrimidine-4-carboxamide]
5 | 9.2 | 4.9 | – | – | CC[C@@H](NC(=O)c1cc(=O)[nH]c(C)n1)c1ccc(SC(F)(F)F)cc1 [Example 29, 2-methyl-6-oxo-N-[(1R)-1-{4-[(trifluoromethyl)sulfanyl]phenyl}propyl]-1,6-dihydropyrimidine-4-carboxamide]
6 | 3.2 | 2.2 | – | – | Cc1nc(C(=O)N[C@@H](c2ccc(SC(F)(F)F)cc2)C(C)C)cc(=O)[nH]1 [Example 30, 2-methyl-N-[(1R)-2-methyl-1-{4-[(trifluoromethyl)sulfanyl]phenyl}propyl]-6-oxo-1,6-dihydropyrimidine-4-carboxamide]
7 | 28 | 15 | – | – | CC[C@@H](NC(=O)c1cc(=O)[nH]c(C)n1)c1ccc(OC(F)(F)F)cc1 [Example 31, 2-methyl-6-oxo-N-{(1R)-1-[4-(trifluoromethoxy)phenyl]propyl}-1,6-dihydropyrimidine-4-carboxamide]
8 | 11 | 5.1 | – | – | Cc1nc(C(=O)N[C@@H](c2ccc(OC(F)(F)F)cc2)C(C)C)cc(=O)[nH]1 [Example 32, 2-methyl-N-{(1R)-2-methyl-1-[4-(trifluoromethoxy)phenyl]propyl}-6-oxo-1,6-dihydropyrimidine-4-carboxamide]
9 | 802 | 656 | – | – | Cc1nc(C(=O)NC(C#N)c2ccc(C(F)(F)F)cc2)cc(=O)[nH]1 (centres unmarked) [Example 33, N-{cyano[4-(trifluoromethyl)phenyl]methyl}-2-methyl-6-oxo-1,6-dihydropyrimidine-4-carboxamide]
10 | 19 | 15 | – | – | Cc1nc(C(=O)NC2(c3ccc(SC(F)(F)F)cc3)CC2)cc(=O)[nH]1 [Example 35, 2-Methyl-6-oxo-N-(1-(4-((trifluoromethyl)thio)phenyl)cyclopropyl)-1,6-dihydroy primidine-4-carboxamide]
11 | 163 | 116 | – | – | CSCc1nc(C(=O)N[C@H](C)c2ccc(C(F)(F)F)cc2)cc(=O)[nH]1 [Example 36, 2-[(methylsulfanyl)methyl]-6-oxo-N-{(1R)-1-[4-(trifluoromethyl)phenyl]ethyl}-1,6-dihydropyrimidine-4-carboxamide]
12 | 17 | 14 | 19 | 27 | Cc1nc(C(=O)N[C@H](C)c2ccc(S(F)(F)(F)(F)F)cc2)cc(=O)[nH]1 [Example 37, 2-methyl-6-oxo-N-{(1R)-1-[4-(pentafluoro-λ^6-sulfanyl)phenyl]ethyl}-1,6-dihydropyrimidine-4-carboxamide]
13 | 7.8 | 5.6 | – | – | Cc1nc(C(=O)N[C@@H](c2ccc(OC(F)(F)F)c(F)c2)C(C)C)cc(=O)[nH]1 [Example 38, N-{(1R)-1-[3-fluoro-4-(trifluoromethoxy)phenyl]-2-methylpropyl}-2-methyl-6-oxo-1,6-dihydropyrimidine-4-carboxamide]
14 | 17 | 8.8 | – | – | CC[C@@H](NC(=O)c1cc(=O)[nH]c(C)n1)c1ccc(OC(F)(F)F)c(F)c1 [Example 39, N-{(1R)-1-[3-fluoro-4-(trifluoromethoxy)phenyl]propyl}-2-methyl-6-oxo-1,6-dihydropyrimidine-4-carboxamide]
15 | 19 | 9.3 | – | – | Cc1nc(C(=O)N[C@@H](c2ccc(OC(F)(F)F)c(F)c2)C2CC2)cc(=O)[nH]1 [Example 40, N-{(R)-cyclopropyl[3-fluoro-4-(trifluoromethoxy)phenyl]methyl}-2-methyl-6-oxo-1,6-dihydropyrimidine-4-carboxamide]
16 | 9.2 | 5.2 | – | – | Cc1nc(C(=O)N[C@@H](c2ccc(SC(F)(F)F)cc2)C2CC2)cc(=O)[nH]1 [Example 41, N-[(R)-cyclopropyl{4-[(trifluoromethyl)sulfanyl]phenyl}methyl]-2-methyl-6-oxo-1,6-dihydropyrimidine-4-carboxamide]
17 | 72 | 31 | – | – | Cc1nc(C(=O)NC(C)c2ccc(C3CC3)cc2)cc(=O)[nH]1 (centres unmarked) [Example 42, N-[1-(4-cyclopropylphenyl)ethyl]-2-methyl-6-oxo-1,6-dihydropyrimidine-4-carboxamide]
18 | 20 | 18 | 14 | 15 | Cc1nc(C(=O)NC(C)(C)c2ccc(C(F)(F)F)c(F)c2)cc(=O)[nH]1 [Example 43, N-{1-[3-fluoro-4-(trifluoromethyl)phenyl]-1-methylethyl}-2-methyl-6-oxo-1,6-dihydropyrimidine-4-carboxamide]
19 | 17 | 10 | 16 | 16 | Cc1nc(C(=O)NC2(c3ccc(C(F)(F)F)c(F)c3)CC2)cc(=O)[nH]1 [Example 44, N-{1-[3-fluoro-4-(trifluoromethyl)phenyl]cyclopropyl}-2-methyl-6-oxo-1,6-dihydropyrimidine-4-carboxamide]
20 | 52 | 35 | – | – | Cc1nc(C(=O)N[C@H](C)c2ccc(CC(F)(F)F)cc2)cc(=O)[nH]1 [Example 45, 2-methyl-6-oxo-N-{(1R)-1-[4-(2,2,2-trifluoroethyl)phenyl]ethyl}-1,6-dihydropyrimidine-4-carboxamide]
21 | 65 | 72 | – | – | Cc1nc(C(=O)N[C@H](C)c2ccc(C(F)(F)F)c(C)c2)cc(=O)[nH]1 [Example 46, 2-methyl-N-{(1R)-1-[3-methyl-4-(trifluoromethyl)phenyl]ethyl}-6-oxo-1,6-dihydropyrimidine-4-carboxamide]
22 | 41 | 32 | – | – | Cc1nc(C(=O)N[C@H](C)c2ccc(C(F)(F)F)c(Cl)c2)cc(=O)[nH]1 [Example 47, N-{(1R)-1-[3-chloro-4-(trifluoromethyl)phenyl]ethyl}-2-methyl-6-oxo-1,6-dihydropyrimidine-4-carboxamide]
23 | 235 | 127 | – | 80 | Cc1nc(C(=O)NC(C)(C)c2ccc(OC(F)(F)F)c(F)c2)cc(=O)[nH]1 [Example 48, N-{1-[3-fluoro-4-(trifluoromethoxy)phenyl]-1-methylethyl}-2-methyl-6-oxo-1,6-dihydropyrimidine-4-carboxamide]
24 | 79 | 45 | – | – | Cc1nc(C(=O)NC2(c3ccc(SC(F)(F)F)cc3)CCC2)cc(=O)[nH]1 [Example 49, 2-methyl-6-oxo-N-(1-{4-[(trifluoromethyl)sulfanyl]phenyl}cyclobutyl)-1,6-dihydropyrimidine-4-carboxamide]
25 | 8 | – | 11 | 8.1 | Cc1nc(C(=O)N[C@@H](c2ccc(C3CC3)cc2)C2CC2)cc(=O)[nH]1 [Example 50, N-[(R)-cyclopropyl(4-cyclopropylphenyl)methyl]-2-methyl-6-oxo-1,6-dihydropyrimidine-4-carboxamide]
26 | 18 | ~6.1 | 18 | 20 | CC[C@@H](NC(=O)c1cc(=O)[nH]c(C)n1)c1ccc(S(F)(F)(F)(F)F)cc1 [Example 51, 2-methyl-6-oxo-N-{(1R)-1-[4-(pentafluoro-λ^6-sulfanyl)phenyl]propyl}-1,6-dihydropyrimidine-4-carboxamide]
27 | 5.1 | – | 6 | 6.4 | Cc1nc(C(=O)N[C@@H](c2ccc(S(F)(F)(F)(F)F)cc2)C(C)C)cc(=O)[nH]1 [Example 52, 2-methyl-N-{(1R)-2-methyl-1-[4-(pentafluoro-λ^6-sulfanyl)phenyl]propyl}-6-oxo-1,6-dihydropyrimidine-4-carboxamide]
28 | 3.6 | 2.8 | – | – | Cc1nc(C(=O)N[C@@H](c2ccc(SC(F)(F)F)c(F)c2)C(C)C)cc(=O)[nH]1 [Example 53, N-[(1R)-1-{3-fluoro-4-[(trifluoromethyl)sulfanyl]phenyl}-2-methylpropyl]-2-methyl-6-oxo-1,6-dihydropyrimidine-4-carboxamide]
29 | 9.7 | 5.5 | – | – | CC[C@@H](NC(=O)c1cc(=O)[nH]c(C)n1)c1ccc(SC(F)(F)F)c(F)c1 [Example 54, N-[(1R)-1-{3-fluoro-4-[(trifluoromethyl)sulfanyl]phenyl}propyl]-2-methyl-6-oxo-1,6-dihydropyrimidine-4-carboxamide]
